In patent US20100249043A1, “COMPOSITIONS AND METHODS FOR PROMOTING HAIR GROWTH” (LA CANADA VENTRURES, INC., priority 2009, published 2010):

Test system: scalp hair
Assay: scalp hair conditioner / scalp serum applied to dry scalp, monthly follow up with photographs
Assay type: in vivo
Details: applied to dry scalp after cleansing
Text: The subjects were asked to apply the scalp serum with various concentrations of prostaglandin (dechloroethylcloprostenolamide from 0 wt % to 0.03 wt %), and a placebo is applied on the separate portion of the scalp. […] All the agents are applied directly to dry scalp after cleansing. Follow up are done monthly and photographs are taken.

## dechloroethylcloprostenolamide [prostaglandin]
  time to response on scalp: 3 month
